Among the data in ChEMBL document CHEMBL4483862, “Open-source discovery of chemical leads for next-generation chemoprotective antimalarials” (2018) are IC50 and IC90 values, retold here.

In this experiment the test system is Plasmodium berghei. As to the kind of experiment: Luciferase/luciferin-expressing antifolate-resistant parasites were used to infect a culture of HepG2 cells that were pre-incubated with compounds. Infected hepatocytes emit light due to the luciferase reaction. Assay results are presented as the percent inhibition of light emission compared to control. […]. It is filed as functional. The following applies: sporozoite; for IC90: read-out: LUCIFERASE INFECTION ASSAY - IC90.

Setting [1] is: read-out: LUCIFERASE INFECTION ASSAY - IC50.

pIC50: −log10 of the molar value.

For `Cc1ccccc1-c1cnc2cnc(-c3ccc(CNc4ccccc4)cc3)cn12`, the IC90 was more than 8.45 µM. For the setting “PBLUC_HILL_SLOPE 14.2, PBLUC_R_SQUARED 0.506, read-out: LUCIFERASE INFECTION ASSAY - IC50”, the pIC50 is 5.09.

As for `CCOC(=O)c1cc(N/N=C(/C(=O)Nc2cccnc2)C(=O)c2ccccc2)cc(C(=O)OCC)c1`, the IC90 was more than 10 µM. Also, under setting [1], the pIC50 was less than 5.00.

As to `Cc1cc(O)cc2c1C(=O)/C(=C/c1ccccc1F)O2`, the IC90 came out at 11.8 µM. The pIC50 (FFLUC_HILL_SLOPE 1.55, FFLUC_R_SQUARED 0.688, HEPG2TOX_HILL_SLOPE 12, HEPG2TOX_R_SQUARED 0.541, PBLUC_HILL_SLOPE 35.8, PBLUC_R_SQUARED 0.416, read-out: LUCIFERASE INFECTION ASSAY - IC50) was 4.95.

Regarding `COc1ccc(Br)cc1-c1nc(CN2C(=O)NC(C)(c3ccccc3)C2=O)cs1` (configuration not stated), the IC90 is 5.61 µM. The pIC50 (HEPG2TOX_HILL_SLOPE 2.19, HEPG2TOX_R_SQUARED 0.876, PBLUC_HILL_SLOPE 2.71, PBLUC_R_SQUARED 0.259, read-out: LUCIFERASE INFECTION ASSAY - IC50) is 5.60.

In the case of `O=C(Nc1ccc(Oc2ccc3ccccc3c2)cc1)c1ccccc1`, the IC90 is 1.16 µM. The negative logarithm of the IC50 (pIC50) (HEPG2TOX_HILL_SLOPE 2.3, HEPG2TOX_R_SQUARED 0.782, PBLUC_HILL_SLOPE 2.18, PBLUC_R_SQUARED 0.822, read-out: LUCIFERASE INFECTION ASSAY - IC50) is 6.37.

Take `CCOc1cc(CNCc2nc3ccccc3[nH]2)ccc1OCc1cccs1`: the IC90 was more than 10 µM. The negative-log IC50 (pIC50) (HEPG2TOX_HILL_SLOPE 15, HEPG2TOX_R_SQUARED 0.655, PBLUC_HILL_SLOPE 1.7, PBLUC_R_SQUARED 0.452, read-out: LUCIFERASE INFECTION ASSAY - IC50) is 5.38.

As for `CCOc1cc(C(=O)NC2CCCCCC2)ccc1OCc1cccnc1`, the IC90 was more than 2 µM. In addition, the pIC50 under setting [1] was less than 5.70.

Take `O=S(=O)(Nc1cc(C(F)(F)F)cc(C(F)(F)F)c1)c1cc(F)c(Br)cc1F`: the IC90 was determined as 5.67 µM. Moreover, the pIC50 (HEPG2TOX_HILL_SLOPE 2.12, HEPG2TOX_R_SQUARED 0.942, PBLUC_HILL_SLOPE 3.41, PBLUC_R_SQUARED 0.612, read-out: LUCIFERASE INFECTION ASSAY - IC50) was 5.53.

For the compound `Cc1ccc(NC(=O)c2cccc(NS(=O)(=O)c3ccc(C)c(F)c3)c2)nc1`, the 90% effect concentration (IC90) was more than 10 µM. Moreover, the pIC50 under setting [1] was less than 5.00.

Regarding `CC(NCc1ccc(N(C)CCO)cc1)c1ccc(-c2ccccc2)cc1` (configuration not stated), the IC90 was more than 10 µM. Besides, the pIC50 (PBLUC_HILL_SLOPE 1.73, PBLUC_R_SQUARED 0.432, read-out: LUCIFERASE INFECTION ASSAY - IC50) is 5.10.

As for `N#Cc1ccc(Cl)cc1NC(=O)CNc1cc(C(F)(F)F)ccc1N1CCCC1`, the IC90 is 4.15 µM. Besides, the pIC50 (PBLUC_HILL_SLOPE 5.67, PBLUC_R_SQUARED 0.48, read-out: LUCIFERASE INFECTION ASSAY - IC50) was 5.55.

`CC(=O)c1ccc(NC(=O)Nc2ccc3nc(-c4cccc(F)c4)nn3c2)cc1`: the concentration for an effect of 90% (IC90) is more than 10 µM. The pIC50 under setting [1] was 5.26.

As to `NC(c1csc(NC(=O)Nc2ccccc2-c2ccccc2)n1)C1CCCCC1` (configuration not stated), the IC90 is more than 8.12 µM. For the same compound, the pIC50 (PBLUC_HILL_SLOPE 15.5, PBLUC_R_SQUARED 0.0255, read-out: LUCIFERASE INFECTION ASSAY - IC50) is 5.12.

For `c1cncc(-c2cnc3ccc(-c4ccoc4)nn23)c1`, the 90% effect concentration (IC90) was more than 10 µM. Further, where the note is “HEPG2TOX_HILL_SLOPE 0.706, HEPG2TOX_R_SQUARED 0.847, PBLUC_HILL_SLOPE 1.15, PBLUC_R_SQUARED 0.722, read-out: LUCIFERASE INFECTION ASSAY - IC50”, the negative logarithm of the IC50 (pIC50) is 5.79.

Consider `O=C(N/N=C/c1ccc(O)cc1O)c1ccc[n+]([O-])c1`, for which the IC90 was 0.362 µM. Under “PBLUC_HILL_SLOPE 3, PBLUC_R_SQUARED 0.854, read-out: LUCIFERASE INFECTION ASSAY - IC50”, the negative logarithm of the IC50 (pIC50) is 6.76.

On to `O=C(NN=CC1C(=O)N(c2ccccc2C(F)(F)F)C(=O)c2ccccc21)c1ccc(F)cc1` (configuration not stated), for which the IC90 was more than 10 µM. The pIC50 (HEPG2TOX_HILL_SLOPE 4.25, HEPG2TOX_R_SQUARED 0.761, PBLUC_HILL_SLOPE 4.13, PBLUC_R_SQUARED 0.557, read-out: LUCIFERASE INFECTION ASSAY - IC50) is 5.23.

As to `C=CCNc1nc(C(=O)OCc2cc(=O)n3cc(Br)ccc3n2)cs1`, the concentration for an effect of 90% (IC90) was more than 10 µM. Further, the pIC50 under setting [1] is less than 5.00.

Take `CNc1nc2cnc(Nc3ccc(OC)cc3C)cc2n1-c1cc(OC)c(OC)c(OC)c1`: the IC90 is more than 10 µM. Besides, the negative-log IC50 (pIC50) under setting [1] was less than 5.00.

Regarding `CSc1sc(Br)c2c1/C(=N\O)CC(C)(C)C2`, the IC90 was more than 10.3 µM. Also, the pIC50 under setting [1] is less than 4.99.

As for `c1ccc(-c2csc3nc(-c4cccnc4)nc(NCC45CC6CC(CC(C6)C4)C5)c23)cc1`, the IC90 was more than 10 µM. For the same compound, under setting [1], the pIC50 is less than 5.00.

Regarding `Cn1ccc2cc(-c3cn4c(-c5cccc(F)c5)cnc4cn3)ccc21`, the IC90 turned out to be 2.18 µM. Besides, under “HEPG2TOX_HILL_SLOPE 1.6, HEPG2TOX_R_SQUARED 0.918, PBLUC_HILL_SLOPE 3.4, PBLUC_R_SQUARED 0.713, read-out: LUCIFERASE INFECTION ASSAY - IC50”, the pIC50 was 5.94.

Regarding `C[n+]1c(-c2ccccc2)cc(CCCCc2cc(-c3ccccc3)[n+](C)c(-c3ccccc3)c2)cc1-c1ccccc1`, the IC90 was more than 10 µM. In addition, the pIC50 (HEPG2TOX_HILL_SLOPE 8.54, HEPG2TOX_R_SQUARED 0.649, PBLUC_HILL_SLOPE 17.9, PBLUC_R_SQUARED 0.599, read-out: LUCIFERASE INFECTION ASSAY - IC50) is 5.02.

On to `CC(Sc1nc(-c2ccccc2)c(-c2ccccc2)o1)C(=O)N1CCCC1` (configuration not stated), for which the IC90 was 1.48 µM. In addition, the pIC50 (HEPG2TOX_HILL_SLOPE 2.22, HEPG2TOX_R_SQUARED 0.0759, PBLUC_HILL_SLOPE 15.7, PBLUC_R_SQUARED 0.556, read-out: LUCIFERASE INFECTION ASSAY - IC50) is 5.89.

`OC1CCC(Nc2ccn3nc(-c4cccc(OCc5ccccc5)c4)cc3n2)CC1` (configuration not stated): the IC90 came to 7.29 µM. Also, for the setting “PBLUC_HILL_SLOPE 2.85, PBLUC_R_SQUARED 0.208, read-out: LUCIFERASE INFECTION ASSAY - IC50”, the pIC50 was 5.47.

With `COc1cc(-c2cc(-c3cc(C)c(O)c(C)c3)cnc2N)ccc1O`, the IC90 was 3.93 µM. Where the note is “HEPG2TOX_HILL_SLOPE 11.4, HEPG2TOX_R_SQUARED 0.062, PBLUC_HILL_SLOPE 8, PBLUC_R_SQUARED 0.677, read-out: LUCIFERASE INFECTION ASSAY - IC50”, the pIC50 was 5.52.

Regarding `O=C(NNC(=S)Nc1cccc(C(F)(F)F)c1)c1cccn1-c1ccc(F)cc1`, the IC90 was more than 7.81 µM. Also, for the setting “HEPG2TOX_HILL_SLOPE 5.96, HEPG2TOX_R_SQUARED 0.739, PBLUC_HILL_SLOPE 1.03, PBLUC_R_SQUARED 0.767, read-out: LUCIFERASE INFECTION ASSAY - IC50”, the pIC50 was less than 5.11.

Turning to `Cc1ccc(Sc2nc(-c3cccs3)ns2)cc1`, the IC90 was more than 11.4 µM. Also, the negative-log IC50 (pIC50) (PBLUC_HILL_SLOPE 0.427, PBLUC_R_SQUARED 0.742, read-out: LUCIFERASE INFECTION ASSAY - IC50) is 6.59.

As to `O=C1C=C(NCCSCc2ccccc2Cl)CC(c2ccc3c(c2)OCO3)C1` (configuration not stated), the IC90 is more than 7.93 µM. For the same compound, the pIC50 (HEPG2TOX_HILL_SLOPE 7.83, HEPG2TOX_R_SQUARED 0.476, PBLUC_HILL_SLOPE 2.36, PBLUC_R_SQUARED 0.149, read-out: LUCIFERASE INFECTION ASSAY - IC50) was 5.18.

For `S=c1[nH]nc(-c2cccnc2Oc2ccccc2)n1-c1ccc(Cl)c(Cl)c1`, the IC90 is more than 7.95 µM. Also, the pIC50 under setting [1] is less than 5.10.

On to `Cc1cn2nc(N(C)Cc3ccc(N(C)C)cc3)sc2n1`, for which the IC90 was more than 10 µM. For the same compound, the pIC50 (HEPG2TOX_HILL_SLOPE 9.75, HEPG2TOX_R_SQUARED 0.561, PBLUC_HILL_SLOPE 7.25, PBLUC_R_SQUARED 0.0375, read-out: LUCIFERASE INFECTION ASSAY - IC50) is 5.10.

For the compound `O=C(Nc1cccc(Oc2cnccn2)c1)C(c1ccccc1)c1ccccc1`, the IC90 is more than 10 µM. For the same compound, the pIC50 (PBLUC_HILL_SLOPE 11.4, PBLUC_R_SQUARED 0.171, read-out: LUCIFERASE INFECTION ASSAY - IC50) is 5.07.

Consider `C/C(=N\c1cc(C(F)(F)F)ccc1Cl)Nc1ccc(C)cc1`, for which the IC90 is more than 10 µM. Further, under setting [1], the pIC50 was less than 5.00.

In the case of `O=C(NC1CCCCC1)N1CCc2nc(NCc3cccc(Oc4ccccc4)c3)ncc2C1`, the IC90 is more than 7.21 µM. Further, the pIC50 (HEPG2TOX_HILL_SLOPE 12.4, HEPG2TOX_R_SQUARED 0.711, PBLUC_HILL_SLOPE 13.6, PBLUC_R_SQUARED 0.535, read-out: LUCIFERASE INFECTION ASSAY - IC50) is 5.17.

On to `COCc1ccc(C(=O)Nc2ccc(-n3cnc4ccccc43)nc2)cc1`, for which the IC90 is more than 10 µM. Further, for the setting “HEPG2TOX_HILL_SLOPE 7.46, HEPG2TOX_R_SQUARED 0.472, PBLUC_HILL_SLOPE 11.4, PBLUC_R_SQUARED 0.343, read-out: LUCIFERASE INFECTION ASSAY - IC50”, the pIC50 is 5.01.

Turning to `Cc1ccc(C2CC(c3cccs3)=NN2c2ccc(C=C(C#N)C#N)cc2)o1` (configuration not stated), the IC90 is more than 10 µM. Besides, the pIC50 (FFLUC_HILL_SLOPE 2.65, FFLUC_R_SQUARED 0.905, HEPG2TOX_HILL_SLOPE 1.94, HEPG2TOX_R_SQUARED 0.705, PBLUC_HILL_SLOPE 0.92, PBLUC_R_SQUARED 0.729, read-out: LUCIFERASE INFECTION ASSAY - IC50) is 5.77.

Take `COc1ccccc1CNC(=O)CN1CCN(c2cc(C)nc(C(C)C)n2)CC1`: the IC90 was more than 10 µM. Further, under setting [1], the pIC50 is less than 5.00.

Broadly, the pIC50 is the negative decadic logarithm of the IC50, by convention in mol/L. In general, IC90 refers to the concentration needed for an effect of 90%.
